Tests used:
peritoneal cancer = conditions: intraperitoneal administration; cited from earlier work
[1] = test system: Human RT4 bladder transitional bladder cancer cells; assay: cytotoxicity in RT4 cells, immediate and delayed effect, sulforhodamine B assay; assay type: cell-based; conditions: immediate effect
[2] = test system: Histocultures of head and neck FaDu xenograft tumors; assay: Lipo-siRNA penetration into tumor histocultures with and without tumor priming; assay type: cell-based; conditions: paclitaxel 0.5 μM maintained for 48 hour, versus no priming
Protocol: Histocultures of head and neck FaDu xenograft tumors were maintained in vitro. Penetration of siRNA, formulated in cationic liposomes, was evaluated with and without tumor priming pretreatment. To facilitate detection, siRNA were labeled with green fluorescence (siGLO) and lipids were labeled with a red fluorescence marker. […] In the overlay picture, the red and green fluorescent images are combined. […] The bars indicate a length of 100 μm.

[3] = test system: human head and neck FaDu xenografts; assay: nano-sized latex bead delivery and dispersion in tumors after tumor priming; assay type: in vivo, Mice; conditions: paclitaxel 40 milligrams per kilogram intravenously, beads 48 hours later, tumors excised 24 hours after
Protocol: Mice were implanted subcutaneously with human head and neck FaDu xenografts, and divided in two groups. […] The control group (without tumor priming) only received the vehicle. Forty-eight hours later, animals received an intravenous injection of red fluorescent latex beads of 100, or 200 nm diameter. Tumors were excised 24 hours after the injection of the beads and examined. […] The percentage of area in tumors occupied by particles was calculated as (total number of deep-derived pixels) divided by (total number of pixels per microscopic field), which provided a measurement of the dispersion area. The average bead concentration in tumors was the average fluorescence intensity, which was calculated as (mean intensity of bead-derived pixels multiplied by total number of bead-derived pixels) divided by (total number of pixels per microscopic field). Eight tumors were used per data point.

[4] = test system: stage T0 and T1 bladder tumors obtained from human patients; conditions: cited from earlier work

Row | Structure (SMILES) | extension of survival time in patients (peritoneal cancer) | maximal inhibition ([1]; 48 hours) | maximal inhibition ([1]; 96 hours) | penetration of siGLO-loaded liposomes after paclitaxel priming [2] | delivery of latex beads to tumors after tumor priming [3] | IC50 [4]
1 | N.N.[Cl][Pt][Cl] [cisplatin] | about 20% | – | – | – | – | –
2 | CC(=O)O[C@H]1C(=O)[C@@]2(C)[C@H]([C@H](OC(=O)c3ccccc3)[C@]3(O)C[C@H](OC(=O)[C@H](O)[C@@H](NC(=O)c4ccccc4)c4ccccc4)C(C)=C1C3(C)C)[C@]1(OC(C)=O)CO[C@@H]1C[C@@H]2O [paclitaxel] | – | 60% | 84% | at least five-fold deeper | enhanced the delivery of the 100- and 200-nm latex beads | 1.2 µM

Reference: US8043631B2, “Tumor targeting drug-loaded particles” (priority 2005, dated 2011)
